Laboratory results taken from patent US10815312B2, “Bifunctional peptide having capability to permeate cells and capability to regenerate muscles and use thereof” (Seoul National University R&DB Foundation, priority 2018, dated 2020).

What was measured:
intracellular HDAC5 = biological target: T1, intracellular HDAC5 (Mus musculus, UniProt Q9Z2V6); assay: Binding ability to intracellular HDAC5 by immunoprecipitation; conditions: C2C12 cells treated for 2 hours, immunoprecipitation with HDAC5 antibody, western blotting with FITC antibody (FIG. 2)
T1 construct: endogenous in cells; host or cells: C2C12 muscle precursor cells
Protocol: Muscle precursor cells (C2C12) were transplanted at a density of 1.5×10^6/well in a 10 pi dish and cultured in EMEM (Eagle's Minimal Essential Medium, ATCC). The medium was replaced at 24-hour intervals until confluency of cells reached 50%. When the confluency was 50%, the medium was replaced with Essential 8 medium, and the cells were treated with the peptide of SEQ ID NO: 1 for 2 hours. Then, the binding ability to intracellular HDAC5 was identified by immunoprecipitation. The lysate harvested with RIPA buffer containing a protease inhibitor was quantified through a BCA assay. Each sample quantified with a minimum volume of 500 μl at a concentration of 1 μg/ml was collected in a microtube, 2 μg of HDAC5 first antibody was added thereto, and the mixture was reacted under rotation for 16 hours at 4° C. in a refrigerated state. 20 μl of protein A/G agarose beads were added and reacted at 4° C. for 3 hours. Then, the beads were centrifuged, washed three times with DPBS and heated at 85° C. for 5 minutes in a 2× sample buffer, and only the supernatant was obtained, followed by western blotting and identification using an FITC antibody.

mesenchymal stem cells = assay: Differentiation of stem cells into myocytes, gene expression of muscle differentiation markers by real-time RT-PCR; format: cell-based; conditions: 100 μM peptide, muscle differentiation medium, real-time RT-PCR (FIG. 3)
Protocol: 3×10^6 mesenchymal stem cells were cultured in a bacterial culture dish for 3 days to form spheroids. The medium used was low-glucose DMEM with 10% FBS and 1% P/S. After 3 days, the supernatant was removed and only the spheroids were collected and seeded in a cell culture dish coated with 10 ug/ml of collagen type I for 4 days. The medium used was DMEM/F12 with 1 ng/ml TGFb (transforming growth factor beta), 1×NEAA (nonessential amino acids) and 1×ITS (insulin-transferrin selenium). After 4 days, the medium was changed to low-glucose DMEM with 2% FBS and 10 ng/ml IGF-1 (insulin growth factor-1), differentiation was further induced for 2 weeks, and muscle differentiation markers were identified. The cells were treated with 100 μM of the group not treated with peptide using only a muscle differentiation medium (NT), 100 μM of the groups treated with the peptides of SEQ ID NOS: 1 to 8 and 100 μM of the control peptide (SEQ ID NO: 9) in order to determine the efficiency of expression of the muscle differentiation markers by the peptides. The levels of gene expression of dystrophin and myogenin, as muscle differentiation markers, were measured through real-time RT-PCR. The base sequences of the PCR primers used for amplification of respective genes are as follows.

T1 sequence (Q9Z2V6 whole entry): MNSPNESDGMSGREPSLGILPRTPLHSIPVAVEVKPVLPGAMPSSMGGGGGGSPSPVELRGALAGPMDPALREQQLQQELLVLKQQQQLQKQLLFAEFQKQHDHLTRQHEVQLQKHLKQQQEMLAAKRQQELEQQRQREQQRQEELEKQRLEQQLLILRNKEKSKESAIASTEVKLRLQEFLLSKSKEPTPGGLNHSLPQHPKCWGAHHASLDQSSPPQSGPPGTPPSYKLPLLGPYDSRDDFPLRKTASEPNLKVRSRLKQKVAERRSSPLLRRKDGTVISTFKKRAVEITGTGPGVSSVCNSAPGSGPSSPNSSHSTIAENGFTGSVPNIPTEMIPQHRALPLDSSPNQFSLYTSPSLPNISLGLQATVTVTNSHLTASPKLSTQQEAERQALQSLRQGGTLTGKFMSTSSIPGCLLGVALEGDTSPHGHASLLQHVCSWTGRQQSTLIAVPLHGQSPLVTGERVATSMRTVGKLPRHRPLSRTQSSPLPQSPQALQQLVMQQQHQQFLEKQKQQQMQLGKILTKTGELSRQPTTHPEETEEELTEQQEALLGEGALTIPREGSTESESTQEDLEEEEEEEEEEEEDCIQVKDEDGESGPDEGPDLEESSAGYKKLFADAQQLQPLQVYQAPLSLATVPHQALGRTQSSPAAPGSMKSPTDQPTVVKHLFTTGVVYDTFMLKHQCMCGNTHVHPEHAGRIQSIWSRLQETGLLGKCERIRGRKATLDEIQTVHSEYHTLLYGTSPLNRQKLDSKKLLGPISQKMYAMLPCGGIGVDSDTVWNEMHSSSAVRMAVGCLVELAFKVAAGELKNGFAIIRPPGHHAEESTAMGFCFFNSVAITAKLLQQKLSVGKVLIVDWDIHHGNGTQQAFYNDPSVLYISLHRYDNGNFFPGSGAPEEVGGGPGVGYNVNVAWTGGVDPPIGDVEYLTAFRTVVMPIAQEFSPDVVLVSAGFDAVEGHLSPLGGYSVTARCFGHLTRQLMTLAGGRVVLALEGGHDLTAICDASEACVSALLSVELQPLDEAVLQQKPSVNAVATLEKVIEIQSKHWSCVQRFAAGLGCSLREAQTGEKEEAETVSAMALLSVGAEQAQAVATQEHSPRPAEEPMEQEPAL

| binding to intracellular HDAC5 (intracellular HDAC5) | Sequence | gene expression of dystrophin (mesenchymal stem cells) | gene expression of myogenin (mesenchymal stem cells) |
| --- | --- | --- | --- |
| binds to intracellular HDAC5 | GKCSTRGRKCCRRKK [SEQ ID NO: 1] | – | – |
| – | GLRSKSKKFRRPDIQYPDA (Control peptide C1) [SEQ ID NO: 9] | did not exhibit an increase in gene expression | did not exhibit an increase in gene expression |
